≈ marks a conversion by molar mass, not a printed value.

As usually defined, the melting point is the temperature, or range, at which the solid turns liquid.

One series has as its system Streptococcus pneumoniae. The series is described as follows: Minimum inhibitory concentration (MIC) by agar dilution. In kind it is cell-based. Conditions: in vitro, agar dilution (NCCLS 1993), Streptococcus pneumoniae strain SPNE 9912; read-out: Antibacterial Activity Minimum Inhibitory Concentration SPNE 9912. The source says: The oxazolidinone antibacterial agents of this invention have useful activity against a variety of organisms. The in vitro activity of compounds of this invention can be assessed by standard testing procedures such as the determination of minimum inhibitory concentration (MIC) by agar dilution as described in “Approved Standard. Methods for Dilution Antimicrobial Susceptibility Tests for Bacteria That Grow Aerobically”, 3rd. ed., published 1993 by the National Committee for Clinical Laboratory Standards, Villanova, Pa. USA.
A general note: In agar dilution, organisms are placed on agar that contains the substance at set levels.

Take `CC(=O)NC[C@H]1CN(c2ccc3c(c2)CCSC3)C(=O)O1` [Example 10, (−)-N-[[(5S)-3-(3,4-Dihydro-1H-2-benzothiopyran-6-yl)-2-oxo-5-oxazolidinyl]methyl]acetamide]: the melting point was 112 to 114 °C (dec.). For the same compound, the MIC in the series with Streptococcus pneumoniae was determined as 1 µg/mL (≈ 3.26 µM). On to `CC(=S)NC[C@H]1CN(c2ccc3c(c2)CCOC3)C(=O)O1` [Example 9, (+)-N-[[(5S)-3-(3,4-Dihydro-1H-2-benzopyran-6-yl)-2-oxo-5-oxazolidinyl]methyl]ethanethioamide], for which, in the series on Streptococcus pneumoniae, the MIC stood at 1 µg/mL (≈ 3.26 µM). `CC(=O)NC[C@H]1CN(c2ccc3c(c2)CCCCN3C=O)C(=O)O1` [Example 20, N-{[(5S)-3-(1-Formyl-2,3,4,5-tetrahydro-1H-1-benzazepin-7-yl)-2-oxo-1,3-oxazolidin-5-yl]methyl}acetamide]: in the series on Streptococcus pneumoniae, the MIC is < 0.5 µg/mL.

In the case of `CC(=O)NC[C@H]1CN(c2ccc3c(c2)CCCN(C(=O)CO)C3)C(=O)O1` [Example 37, N-{[(5S)-3-(2-Glycoloyl-1,3,4,5-tetrahydro-1H-3-benzazepin-7-yl)-2-oxo-1,3-oxazolidin-5-yl]methyl}acetamide], the MIC in the series on Streptococcus pneumoniae amounted to 1 µg/mL (≈ 2.77 µM).

As to `CC(=S)NC[C@H]1CN(c2ccc3c(c2)CCN(C=O)C3)C(=O)O1` [Example 6, (+)-N-[[(5S)-3-[2-Formyl-1,2,3,4-tetrahydro-6-isoquinolinyl]-2-oxo-5-oxazolidinyl]methyl]ethanethioamide], the MIC in the series with Streptococcus pneumoniae was < 0.5 µg/mL.

On to `CC(=O)NC[C@H]1CN(c2ccc3c(c2)CCN(C(=O)Cc2ccc(C(F)(F)F)cc2)CC3)C(=O)O1` [Example 33], for which the MIC in the series on Streptococcus pneumoniae came to 2 µg/mL (≈ 4.09 µM). `CC(=O)NC[C@H]1CN(c2ccc3c(c2)CCOC3)C(=O)O1` [Example 8, (−)-N-[[(5S)-3-(3,4-Dihydro-1H-2-benzopyran-6-yl)-2-oxo-5-oxazolidinyl]methyl]acetamide]: the MIC in the series on Streptococcus pneumoniae turned out to be 4 µg/mL (≈ 13.8 µM). Consider `CC(=S)NC[C@H]1CN(c2ccc3c(c2)CCSCC3)C(=O)O1` [Example 49, N-[[(5S)-2-Oxo-3-(1,2,4,5-tetrahydro-3-benzothiepin-7-yl)-5-oxazolidinyl]methyl]ethanethioamide], for which the MIC with Streptococcus pneumoniae stood at 0.5 µg/mL (≈ 1.49 µM). On to `CC(=S)NC[C@H]1CN(c2ccc3c(c2)CCS(=O)(=O)C3)C(=O)O1` [Example 12, (+)-N-[[(5S)-3-(3,4-Dihydro-2,2-dioxido-1H-2-benzothiopyran-6-yl)-2-oxo-5-oxazolidinyl]methyl]ethanethioamide], for which the melting point is 187 °C (dec.). For the same compound, in the series with Streptococcus pneumoniae, the MIC turned out to be 1 µg/mL (≈ 2.82 µM). Consider `CC(=O)NC[C@H]1CN(c2ccc3c(c2)CCCN(C(C)=O)C3)C(=O)O1` [Example 38, N-{[(5S)-3-(2-Acetyl-1,3,4,5-tetrahydro-1H-2-benzazepin-7-yl)-2-oxo-1,3-oxazolidin-5-yl]methyl}acetamide], for which the MIC in the series on Streptococcus pneumoniae came out at 2 µg/mL (≈ 5.79 µM). In the case of `CC(=S)NC[C@H]1CN(c2ccc3c(c2)CCSC3)C(=O)O1` [Example 11, (+)-N-[[(5S)-3-(3,4-Dihydro-1H-2-benzothiopyran-6-yl)-2-oxo-5-oxazolidinyl]methyl]ethanethioamide], the melting point is 112 to 114 °C (dec.). For the same compound, in the series on Streptococcus pneumoniae, the MIC stood at 0.25 µg/mL (≈ 0.775 µM).

For `CC(=S)NC[C@H]1CN(c2ccc3c(c2)CCN(C(=O)CO)C3)C(=O)O1` [Example 7, (+)-N-[[(5S)-3-[2-[(Hydroxy)acetyl]-1,2,3,4-tetrahydro-6-isoquinolinyl]-2-oxo-5-oxazolidinyl]methyl]ethanethioamide], the MIC in the series on Streptococcus pneumoniae was < 0.5 µg/mL. For the compound `CC(=S)NC[C@H]1CN(c2ccc3c(c2)COCC3)C(=O)O1` [Example 13, (+)-N-[[(5S)-3-(3,4-Dihydro-1H-2-benzopyran-7-yl)-2-oxo-5-oxazolidinyl]methyl]ethanethioamide], the melting point is 165 °C (dec.). The MIC in the series with Streptococcus pneumoniae was found to be 1 µg/mL (≈ 3.26 µM). With `CC(=S)NC[C@H]1CN(c2ccc3c(c2)CCS(=O)(=O)CC3)C(=O)O1` [Example 50, N-[[(5S)-2-Oxo-3-(1,2,4,5-tetrahydro-3,3-dioxido-3-benzothiepin-7-yl)-5-oxazolidinyl]methyl]ethanethioamide], the MIC in the series with Streptococcus pneumoniae was determined as 1 µg/mL (≈ 2.71 µM).

Take `COC(=O)N1CCc2cc(N3C[C@H](CNC(C)=O)OC3=O)ccc2C1` [Example 1, (−)-Methyl 6-[(5S)-5-[(acetylamino)methyl]-2-oxo-3-oxazolidinyl]-3,4-dihydro-2(1H)-isoquinolinecarboxylate]: the MIC in the series with Streptococcus pneumoniae is 1 µg/mL (≈ 2.88 µM).

Source of the values: patent publication US6972286B2, “Oxazolidinones having a benzannulated 6- or 7-membered heterocycle” (Pharmacia and Upjohn Company, priority 2000, dated 2005).
